Measured values reported in ChEMBL document CHEMBL1201862, “PubChem BioAssay data set” (2004).
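1) Cells in 96-well plates. 2) Compound, 48 h, 5 concentrations. 3) Linear interpolation between surrounding doses. 4) Unreached endpoint = highest concentration. GI50 marks 50% less growth.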 Activity calls are given as the source filed them. Cut-off read from the data, not from the text of the source: active = GI50 up to about 1.1 µM and inactive = higher.

Legend:
Test in all cases: growth of human tumour cells (NCI), 48 h
HOP-92 = system: HOP-92
NCI-H23 = system: NCI-H23
SK-MEL-5 = system: SK-MEL-5
CAKI-1 = system: CAKI-1
KM12 = system: KM12
MDA-MB-435 = system: MDA-MB-435
MOLT-4 = system: MOLT-4
NCI-H522 = system: NCI-H522
DU-145 = system: DU-145
A549 = system: A549
OVCAR-4 = system: OVCAR-4
OVCAR-3 = system: OVCAR-3
SW-620 = system: SW-620
SK-OV-3 = system: SK-OV-3
RXF 393 = system: RXF 393
CCRF-CEM = system: CCRF-CEM
HCT-116 = system: HCT-116
BT-549 = system: BT-549
UACC-257 = system: UACC-257
Hs-578T = system: Hs-578T
HOP-62 = system: HOP-62
UO-31 = system: UO-31
IGROV-1 = system: IGROV-1
MDA-MB-231 = system: MDA-MB-231
RPMI-8226 = system: RPMI-8226
HCT-15 = system: HCT-15
M14 = system: M14
SNB-75 = system: SNB-75
EKVX = system: EKVX
OVCAR-5 = system: OVCAR-5
K562 = system: K562
SK-MEL-28 = system: SK-MEL-28
T47D = system: T47D
U-251 = system: U-251
786-0 = system: 786-0
NCI/ADR-RES = system: NCI/ADR-RES
UACC-62 = system: UACC-62
SK-MEL-2 = system: SK-MEL-2
HT-29 = system: HT-29
SNB-19 = system: SNB-19
MDA-N = system: MDA-N
SN12C = system: SN12C
SF-268 = system: SF-268
TK-10 = system: TK-10
SF-295 = system: SF-295
COLO 205 = system: COLO 205
NCI-H226 = system: NCI-H226
ACHN = system: ACHN
PC-3 = system: PC-3
HL-60 = system: HL-60
Malme-3M = system: Malme-3M
SR = system: SR
A498 = system: A498
LOX IMVI = system: LOX IMVI
MCF7 = system: MCF7
NCI-H460 = system: NCI-H460
OVCAR-8 = system: OVCAR-8

For `O=S(=O)(O)c1cc(O)c(/N=N/c2ccc3ccccc3c2O)c2ccccc12` [ERIOCHROME BLUE BLACK B], the GI50 (HOP-92) was 28.5 µM (inactive), the GI50 (NCI-H23) was 15.2 µM (inactive) and the GI50 (SK-MEL-5) was 11.9 µM (inactive). The GI50 (CAKI-1) was 27 µM (inactive), the GI50 (KM12) was 30.4 µM (inactive) and the GI50 (MDA-MB-435) was 1.97 µM (inactive). The GI50 (MOLT-4) was 18 µM (inactive), the GI50 (NCI-H522) was 15.1 µM (inactive) and the GI50 (DU-145) was 14.3 µM (inactive). For the same compound, the GI50 (A549) was 21.1 µM (inactive), the GI50 (OVCAR-4) was 78.3 µM (inactive) and the GI50 (OVCAR-3) was 4.71 µM (inactive). For the same compound, the GI50 (SW-620) was 33.9 µM (inactive), the GI50 (SK-OV-3) was 31.6 µM (inactive) and the GI50 (RXF 393) was 80.9 µM (inactive). The GI50 (CCRF-CEM) was 21.9 µM (inactive), the GI50 (HCT-116) was 33.4 µM (inactive) and the GI50 (BT-549) was 37.3 µM (inactive). For the same compound, the GI50 (UACC-257) was 25.8 µM (inactive), the GI50 (Hs-578T) was 40.8 µM (inactive) and the GI50 (HOP-62) was 30.3 µM (inactive). For the same compound, the GI50 (UO-31) was 17.1 µM (inactive), the GI50 (IGROV-1) was 3.59 µM (inactive) and the GI50 (MDA-MB-231) was 16.4 µM (inactive). For the same compound, the GI50 (RPMI-8226) was 41.7 µM (inactive), the GI50 (HCT-15) was 23.9 µM and the GI50 (M14) was 13.3 µM (inactive). For the same compound, the GI50 (SNB-75) was 16.7 µM (inactive), the GI50 (EKVX) was 12.9 µM (inactive) and the GI50 (OVCAR-5) was 33.3 µM (inactive). For the same compound, the GI50 (K562) was 18 µM (inactive), the GI50 (SK-MEL-28) was 45.6 µM (inactive) and the GI50 (T47D) was 15.8 µM (inactive). The GI50 (U-251) was 32.4 µM (inactive), the GI50 (786-0) was 31.4 µM (inactive) and the GI50 (NCI/ADR-RES) was 15.6 µM (inactive). For the same compound, the GI50 (UACC-62) was 14.8 µM (inactive), the GI50 (SK-MEL-2) was 26.9 µM (inactive) and the GI50 (HT-29) was 24.7 µM (inactive). The GI50 (SNB-19) was 37.8 µM (inactive), the GI50 (MDA-N) was 5.06 µM (inactive) and the GI50 (SN12C) was 23.4 µM (inactive). The GI50 (SF-268) was 10.5 µM (inactive), the GI50 (TK-10) was 66.2 µM (inactive) and the GI50 (SF-295) was 27.4 µM (inactive). For the same compound, the GI50 (COLO 205) was 28.7 µM (inactive), the GI50 (NCI-H226) was 16.1 µM (inactive) and the GI50 (ACHN) was 24.6 µM (inactive). The GI50 (PC-3) was 34.3 µM (inactive), the GI50 (HL-60) was 6.17 µM (inactive) and the GI50 (Malme-3M) was 0.0753 µM (active). The GI50 (SR) was 7.41 µM (inactive).
For `Cc1c(F)c(N)c2c(=O)cc(-c3ccc(NC(=O)[C@@H](N)CCCCN)c(F)c3)oc2c1F`, the GI50 (HOP-92) was 26.7 µM (inactive), the GI50 (KM12) was 8.95 µM (inactive) and the GI50 (MDA-MB-435) was 8.65 µM (inactive). For the same compound, the GI50 (DU-145) was 14.5 µM (inactive), the GI50 (SK-OV-3) was 15.3 µM (inactive) and the GI50 (RXF 393) was 16.1 µM (inactive). The GI50 (CCRF-CEM) was 5.07 µM (inactive), the GI50 (HCT-116) was 5.16 µM (inactive) and the GI50 (BT-549) was 23.6 µM (inactive). The GI50 (UACC-257) was 0.209 µM (active), the GI50 (HOP-62) was 12.3 µM (inactive) and the GI50 (UO-31) was 14.8 µM (inactive). The GI50 (IGROV-1) was 0.0532 µM (active), the GI50 (MDA-MB-231) was 16.3 µM (inactive) and the GI50 (HCT-15) was 14 µM. For the same compound, the GI50 (M14) was 20.7 µM (inactive), the GI50 (EKVX) was 11 µM (inactive) and the GI50 (A498) was 0.057 µM (active). For the same compound, the GI50 (SK-MEL-28) was 18.5 µM (inactive), the GI50 (T47D) was 0.0942 µM (active) and the GI50 (786-0) was 7.48 µM (inactive). The GI50 (LOX IMVI) was 16.3 µM (inactive), the GI50 (NCI/ADR-RES) was 20.4 µM (inactive) and the GI50 (MCF7) was 0.0399 µM (active). The GI50 (SK-MEL-2) was 17.5 µM (inactive), the GI50 (HT-29) was 14.3 µM (inactive) and the GI50 (NCI-H460) was 0.132 µM (active). For the same compound, the GI50 (SNB-19) was 27 µM (inactive), the GI50 (MDA-N) was 12.5 µM (inactive) and the GI50 (SN12C) was 14.9 µM (inactive). For the same compound, the GI50 (OVCAR-8) was 13.7 µM (inactive), the GI50 (SF-268) was 12.8 µM (inactive) and the GI50 (TK-10) was 0.239 µM (active). The GI50 (SF-295) was 13.2 µM (inactive), the GI50 (ACHN) was 16.2 µM (inactive) and the GI50 (PC-3) was 16.6 µM (inactive).
